Measured values from patent publication US11845770B2, “Ascaroside derivatives and methods of use” (California Institute of Technology, priority 2019, dated 2023).
“Also recorded” adds a separate entry of the source.

Key:
[1] = tested on: THP1 human macrophage cells; assay: Stimulation of THP-1 cells, IL-6 at 6 or 36 hours post stimulation; format: cell-based; settings: THP1-derived macrophages, IFNγ + LPS, 0.1 to 500 μM, FIG. 9
Experimental: Human immortalized monocytic THP-1 cells were maintained in phenol red free RPMI 1640 medium containing 10% (v/v) fetal bovine serum (FBS), 2 mM L-glutamine, penicillin (100 units/mL), streptomycin (100 μg/mL), amphotericin B (2.5 μg/mL), and 50 μM beta-mercaptoethanol (BME) at 37° C. with 5% (v/v) CO2. THP-1 cells were seeded in 1 mL of THP-1 medium (cell culture medium containing 10% (v/v) FBS, 2 mM L-glutamine, penicillin (100 units/mL), streptomycin (100 μg/mL), amphotericin B ([…]), and 50 μM BME)/well at a density of 1×10^6 cells/mL in six-well plates. Cells were differentiated by adding 10, 50, or 100 nM phorbol 12-myristate 13-acetate (PMA) to each well before incubating cells for 5.5 h at 37° C. with 5% (v/v) CO2. Without removing the media, different concentrations (either 0, 0.1, 1.0, 10, 100, 200, or 500 μM) of the compound were added to each well. Cells were stimulated, within 30 min by adding 20 ng/mL interferon gamma (IFNγ) and 100 ng/mL lipopolysaccharide (LPS) to each well. Following stimulation, the THP-1 cells were incubated for 6 or 36 hours at 37° C. with 5% (v/v) CO2. Supernatant was collected and stored at −80° C. until use.
IL-6 released from supernatants collected at 6 or 36 hours post stimulation with IFNγ and LPS were measured using the AlphaLISA Human IL-6 detection kit.

[2] = tested on: human naïve T cells; assay: Stimulation of blood derived naïve T cells with Der p1 (house dust mite) antigen; format: cell-based; settings: at 100 μM; human T cells, Der p1 antigen; FIG. 15
Experimental: Naïve T cells from peripheral blood samples were collected and processed using MACSxpress® Whole Blood Pan T Cell Isolation Kit (Miltenyi Biotec), according to the manufacturer's protocol. Isolated naïve T cells were cultured in RPMI medium supplemented with 5% Fetal Bovine Serum (FBS) at 37° C. with 5% (v/v) CO2. T cells were seeded in 24 well plates at a density of 0.5×10^6 cells per well. The cells were pre-treated with the compounds (0, 0.1, 1.0, 10, 100 μM) for 1 hour prior to stimulation. Cells were stimulated with […] of Dermatophagoides pteronyssinus (Der p1) antigen. After 48 hours, fresh […] of Der p1 was added and continued incubating for a further 72 hours at 37° C. with 5% (v/v) CO2. Overall T cells were stimulated with […] of Der p1 antigen for 5 days before supernatants were collected and stored at −80° C. until quantitative detection assays are performed.
Human Interleukin-4 (IL-4), Interleukin-5 (IL-5), Interleukin-6 (IL-6), Interleukin-8 (IL-8), Interleukin-13 ([…]), Interleukin-23 (IL-23), and Interferon gamma (IFNγ) released from supernatants collected post stimulation were measured using Human Magnetic Luminex® Assay Kit. Human Transforming Growth Factor beta (TGFβ) was measured using an Enzyme-Linked Immunosorbent Assay (ELISA)-based analysis.

[3] = tested on: EPC2 human esophageal keratinocytes; assay: Stimulation of EPC2-hTERT human esophageal keratinocytes with Poly(I:C); format: cell-based; settings: 24 hours, increasing concentrations; for percent inhibition relative to Stimulated of TSLP expression: FIG. 19A; for percent inhibition relative to Stimulated of IL-6 expression: FIG. 19B; for percent inhibition relative to Stimulated of MCP-1 expression: FIG. 19C
Experimental: EPC2-hTERT (EPC2) cells were maintained in supplemented keratinocyte serum-free medium (KSFM) with 0.09 mM calcium chloride containing epidermal growth factor (5 ng/mL), bovine pituitary extract ([…]), penicillin (100 units/mL), and streptomycin ([…]) (ThermoFisher #17005042) at 37° C. with 5% (v/v) CO2. EPC2 cells were seeded in 12-well plates at 0.55×10^6 cells per well in supplemented KSFM at 37° C. with 5% (v/v) CO2 and after 6 hours the old media is removed and changed with fresh media. After overnight incubation, the old media is changed to supplemented KSFM containing 1.8 mM calcium chloride and incubated for 72 hours at 37° C. with 5% (v/v) CO2. After the old media is removed and fresh supplemented KSFM containing 1.8 mM calcium chloride is added, the cells are pre-treated with different concentrations of compounds (0, 1, 10, 100, 500, 1000 μM) for 1 hour prior to stimulation. To stimulate the cells, Poly (I:C) (Tocris #4287) is added to the wells at […] concentration without removing the media and incubated for 24 hours at 37° C. with 5% (v/v) CO2. Supernatants are collected in Eppendorf tubes, centrifuged in a microfuge at maximum speed for 10 minutes at 4° C., and the centrifuged supernatants stored at −80° C. until quantitative detection assays are performed. Human Interleukin-6 (IL-6), Monocyte Chemoattractant Protein-1 (MCP-1), and Thymic stromal lymphopoietin (TSLP) released from supernatants collected post stimulation were measured using the AlphaLISA detection kit for human IL-6, MCP-1, and TSLP, respectively.

[4] = tested on: THP-1 derived macrophages; assay: Stimulation of THP-1 cells, cytokine release 72 h post stimulation; format: cell-based, human; settings: 72 h post stimulation (IFN-γ + LPS); 0.1, 1, 10, 100 or 200 μM vs 0 μM
Experimental: Human immortalized monocytic THP-1 cells were maintained in phenol red free RPMI 1640 medium containing 10% (v/v) fetal bovine serum (FBS), 2 mM L-glutamine, penicillin (100 units/mL), streptomycin (100 μg/mL), amphotericin B (2.5 μg/mL), and 50 μM beta-mercaptoethanol (BME) at 37° C. with 5% (v/v) CO2. THP-1 cells were seeded in 1 mL of THP-1 medium (cell culture medium containing 10% (v/v) FBS, 2 mM L-glutamine, penicillin (100 units/mL), streptomycin (100 μg/mL), amphotericin B (2.5 μg/mL), and 50 μM BME)/well at a density of 1 million cells/mL in six-well plates. Cells were differentiated by adding 100 nM phorbol 12-myristate 13-acetate (PMA) to each well before incubating cells for 5.5 h at 37° C. with 5% (v/v) CO2. Without removing the media, different concentrations (either 0, 0.1, 1, 10, 100, or 200 μM) of 1 and 10 were added to each well. Cells were stimulated, within 30 min by adding 20 ng/mL interferon gamma (IFN-γ) and 100 ng/mL lipopolysaccharide (LPS) to each well. Following stimulation, the THP-1 cells were incubated for 72 h at 37° C. with 5% (v/v) CO2. Supernatant was collected and stored at −80° C. until use.
IL-6 release from supernatant collected at 72 hours post stimulation was measured using the AlphaLISA Human IL-6 detection kit.
TNFα release from supernatant collected at 72 hours post stimulation was measured using the AlphaLISA Human TNFα detection kit.

[5] = tested on: A549 human alveolar epithelial cells; assay: Stimulation of A549 human lung carcinoma cell line, cytokine expression; format: cell-based; settings: A549, 10 ng/mL TNFα + 10 ng/mL IL-1β, 48 hours
Experimental: A549 cells are cultured in DMEM supplemented with 2 mM glutamine and 10% Fetal Bovine Serum (FBS) at 37° C. with 5% (v/v) CO2. Cells are grown to approximately 80% confluency before being passage and media is changed every 2-3 days. A549 cells are seeded in 24-well plates at a density of 0.5×10^6 cells per well at 37° C. with 5% (v/v) CO2. The cells are pre-treated with the compounds (0, 1.0, 10, 100 μM) for 1 hour prior to addition of 10 ng/mL of TNFα and 10 ng/mL of IL-1β for 48 hours at 37° C. with 5% (v/v) CO2. Supernatants were collected and stored at −80° C. until quantitative detection assays are performed.
Human Eotaxin, Monocyte Chemoattractant Protein-1 (MCP-1), Interleukin-6 (IL-6), Interleukin-25 (IL-25), Interleukin-33 (IL-33), Thymic stromal lymphopoietin (TSLP), and Granulocyte-Macrophage Colony-Stimulating Factor (GM-CSF) released from supernatants collected post stimulation were measured using Human Magnetic Luminex® Assay Kit. Human CCL5/RANTES was measured using an Enzyme-Linked Immunosorbent Assay (ELISA)-based analysis.

Row | Compound | percent inhibition relative to Control of IL-6 levels secreted [1] | percent inhibition relative to Stimulated of IL-6 expression [2] | percent inhibition relative to Stimulated of IL-8 expression [2] | percent inhibition relative to Stimulated of TNFα expression [2] | percent inhibition relative to Stimulated of TSLP expression [3] | percent inhibition relative to Stimulated of IL-6 expression [3] | percent inhibition relative to Stimulated of MCP-1 expression [3] | fold change of IL-6 levels secreted by the THP1-derived macrophages [4] | fold change of TNFα levels secreted by the THP1-derived macrophages [4] | percent inhibition relative to Stimulated of GM-CSF expression ([5]; 1.0, 10, 100 μM, FIG. 16, 17) | percent inhibition relative to Stimulated of IL-25 expression ([5]; 1.0, 10, 100 μM, FIG. 16, 17) | percent inhibition relative to Stimulated of IL-33 expression ([5]; 1.0, 10, 100 μM, FIG. 16, 17) | percent inhibition relative to Stimulated of MCP-1 expression ([5]; 1.0, 10, 100 μM, FIG. 16, 17) | percent inhibition relative to Stimulated of Eotaxin expression ([5]; FIG. 18) | percent inhibition relative to Stimulated of IL-6 expression ([5]; FIG. 18) | percent inhibition relative to Stimulated of RANTES expression ([5]; FIG. 18) | percent inhibition relative to Stimulated of TSLP expression ([5]; FIG. 18)
1 | C[C@H](CC/C=C/C(=O)OCC1CCCCC1)O[C@@H]1O[C@@H](C)[C@H](O)C[C@H]1O [Compound 3, cyclohexylmethyl (2E,6R)-6-{[(2R,3R,5R,6S)-3,5-dihydroxy-6-methyloxan-2-yl]oxy}hept-2-enoate] | inhibited IL-6 expression in statistically significant, dose-dependent manner | statistically significant inhibition | statistically significant inhibition | statistically significant inhibition | statistically significant inhibition; also recorded: completely inhibited | inhibited IL-6 expression in statistically significant, dose-dependent manner | inhibited MCP-1 expression in statistically significant, dose-dependent manner | – | – | – | – | – | – | – | – | – | –
2 | C[C@H](CCCCC(=O)OC(C)(C)C)O[C@@H]1O[C@@H](C)[C@H](O)C[C@H]1O [Compound 10, tert-butyl (R)-6-(((2R,3R,5R,6S)-3,5-dihydroxy-6-methyltetrahydro-2H-pyran-2-yl)oxy)heptanoate] | inhibited IL-6 expression in statistically significant, dose-dependent manner | – | – | – | statistically significant inhibition; also recorded: robust blocking | inhibited IL-6 expression in statistically significant, dose-dependent manner | inhibited MCP-1 expression in statistically significant, dose-dependent manner | reduced these levels significantly; also recorded: even more significantly reduced | reduced these levels significantly | overall statistically significant, dose-dependent inhibition | overall statistically significant, dose-dependent inhibition | overall statistically significant, dose-dependent inhibition | overall statistically significant, dose-dependent inhibition | robust, statistically significant inhibition | robust, statistically significant inhibition | robust, statistically significant inhibition | robust, statistically significant inhibition
